Data on twelve molecules can be found in patent US20220091128A1, “SYSTEM AND METHOD FOR LIGAND THERMAL ANALYSIS” (Portland State University, priority 2019, published 2022).

pKd: −log10 of the molar value. Read-outs that look alike come from different tables or passages of the source.

Data set [1] deals with T1, human serum albumin (HSA) (Homo sapiens, UniProt P02768).
T1 construct: purchased Sigma Aldrich (St. Louis, Mo.)
Kind of data set: DSC thermograms of HSA with ligand (single-ligand titration). The class given is binding. As to the method: Chemicals and reagents: Plasma and highly pure plasma proteins are sourced from commercial suppliers. Standard reagents are sourced from commercial suppliers. Samples are prepared in standard phosphate-buffered saline (PBS) buffer. In some examples, human plasma and serum albumin were purchased from Sigma Aldrich (St. Louis, Mo.) and received as lyophilized powder. Plasma was product number: P9523, lot number: SLBT0202. […] In vivo, the standard state of HSA is most certainly bound to some extent by fatty acids. Plasma and HSA stock solutions were prepared by re-suspending the appropriate amount of powder in buffer. Samples were prepared by diluting stock solutions to a final concentration of 1.5-2.0 mg/mL.
Protein concentration was approximately 2 mg/ml.
In a DSC melting experiment, the supplemental power supplied to the sample cell (in μW) necessary to keep the sample temperature equal to the reference temperature is continually monitored. […] Supplemental power is directly related to the molar heat capacity at constant pressure, ΔCp. Curves of ΔCp versus T provide an evaluation of the thermodynamic enthalpy. To enable direct comparisons in some cases, power (μW) versus T plots (instead of ΔCp versus T curves) were used for the following reason.
Analysis of DSC data was performed using the Nanoanalyze software package, version 3.7.5, provided by T.A. Instruments. […]
From the thermograms, semi-quantitative evaluations of the thermodynamic parameters ΔHcal, ΔScal and ΔGcal(37° C.) were obtained at each ligand concentration.
These curves were constructed from titrations of DM1 with HSA. The Tm and ΔGcal(37° C.) were evaluated. The values were normalized against standard HSA and plotted versus ligand concentration to provide the dose curves in FIG. 20A (Tm) and FIG. 20B (ΔGcal(37° C.)).
Natural HSA samples were prepared at pH 6.0 and pH 8.0 and examined by DSC. […] From DSC melting curves thermodynamic parameters for HSA/ligand mixtures were evaluated.

Another data set concerns human plasma. Kind of data set: DSC thermograms of plasma with ligand. Format: binding. For orientation: Differential scanning calorimetry records heat flow against a reference as temperature is scanned.
The target in data set [2] is T2, HSA (Homo sapiens, UniProt P02768). On the set-up: purchased Sigma Aldrich (St. Louis, Mo.). To be noted: cited from earlier work; for pKd: binding to HSA, read-out: Average Literature KD; for reported HSA binding activity: literature report.
In data set [3] the target is T2, HSA. Kind of data set: Drug screening: HSA binding constants from DSC thermograms. The following applies: for Measured HSA binding (cell spanning the measured KD columns; same in text): result in words.
Method: Ligand solubilization: Stock solutions of aqueous insoluble ligands in organic solvents were pipetted into microcentrifuge tubes to yield a desired amount of drug for a 1 mL solution. The microcentrifuge tubes were placed into a vacuum concentrator (Savant SpeedVac Model SC100), and the organic solvents were evaporated, resulting in solid drug in the tube. To each tube, HSA is added at a predetermined concentration with standard buffer to provide a 1 mL working solution.
In total binding of 28 drug compounds to HSA was examined by obtaining thermograms.
Where [4] appears, read: Average Measured KD, binding to HSA; single value or value marked 1).
Setting [5] is: Measured KD From TM, binding to HSA; single value or value marked 1).
Setting [6] is: Measured KD from ΔG^037, binding to HSA; single value or value marked 1).
The mark [7] stands for this setting: read-out: Average Measured KD; binding to HSA; single value or value marked 1).
Setting [8] is: read-out: Measured KD From TM; binding to HSA; single value or value marked 1).
[9] abbreviates: read-out: Measured KD from ΔG^037; binding to HSA; single value or value marked 1).

T2 sequence (P02768 25-609): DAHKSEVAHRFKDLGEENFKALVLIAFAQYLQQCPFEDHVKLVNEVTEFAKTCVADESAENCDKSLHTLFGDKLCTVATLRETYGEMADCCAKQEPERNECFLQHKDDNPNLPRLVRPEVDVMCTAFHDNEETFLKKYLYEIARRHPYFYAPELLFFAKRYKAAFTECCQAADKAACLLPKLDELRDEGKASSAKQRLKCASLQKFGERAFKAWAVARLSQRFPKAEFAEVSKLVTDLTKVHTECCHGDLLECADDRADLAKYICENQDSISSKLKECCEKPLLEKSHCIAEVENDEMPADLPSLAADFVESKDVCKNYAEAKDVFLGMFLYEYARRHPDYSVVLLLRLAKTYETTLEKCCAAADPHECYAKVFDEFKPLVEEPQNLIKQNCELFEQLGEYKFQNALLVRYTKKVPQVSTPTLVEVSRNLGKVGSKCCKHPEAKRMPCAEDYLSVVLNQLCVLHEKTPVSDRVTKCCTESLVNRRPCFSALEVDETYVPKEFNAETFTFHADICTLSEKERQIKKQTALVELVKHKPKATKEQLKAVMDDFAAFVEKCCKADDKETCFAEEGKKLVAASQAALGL
T1 sequence (P02768 25-609): as above

Consider `CCN(CC)CCCC(C)Nc1ccnc2cc(Cl)ccc12` (stereo not drawn) [CQ, Chloroquine], for which the “Implied number of sites” value in data set [1] amounted to 1. Moreover, in the data set on human plasma, the “effect on fibrinogen melting transition peak (52° C.) of the plasma thermogram” value is “significant perturbation”.
In general, pKd refers to the negative decadic logarithm of the Kd, by convention in mol/L. Regarding `C=CC1=C(C)/C(=C/c2[nH]c(Cc3[nH]c(/C=C4\NC(=O)C(C)=C4C=C)c(C)c3CCC(=O)O)c(CCC(=O)O)c2C)NC1=O` [Bilirubin (BIL), Bilirubin], the pKd at HSA [2] was 7.13; on HSA [3] (setting [4]), 6.48; on HSA [3] (setting [5]) it was 6.39; at HSA [3] (setting [6]), 6.60.
With `CC(O)CN1CCN(CC(=O)[O-])CCN(CC(=O)[O-])CCN(CC(=O)[O-])CC1.[Gd+3]` (stereo not drawn) [Prohance (PRO), gadoteridol], the “reported HSA binding activity” value at HSA [2] is on record as “not display HSA binding activity”.
As to `CNC[C@H](O)[C@@H](O)[C@H](O)[C@H](O)CO.CNC[C@H](O)[C@@H](O)[C@H](O)[C@H](O)CO.O=C([O-])CN(CCN(CC(=O)[O-])CC(=O)O)CCN(CC(=O)O)C(COCc1ccccc1)C(=O)[O-].[Gd+3]` (stereo not drawn) [Multihance (MH)], the negative logarithm of the Kd (pKd) at HSA [2] is 2.71; at HSA [3] (setting [7]) it was 2.87; on HSA [3] (setting [8]) it was 2.86; at HSA [3] (setting [9]), 2.89.
Turning to `CC(NC(C)(C)C)C(=O)c1cccc(Cl)c1` (stereo not drawn) [Bupropion (BPR), Bupropion], the negative logarithm of the Kd (pKd) on HSA [2] is 3.76; at HSA [3] (Average Measured KD, binding to HSA; second value marked 2)), 4.71; at HSA [3] (setting [4]), 6.60; on HSA [3] (Measured KD From TM, binding to HSA; second value marked 2)) it was 4.54; on HSA [3] (setting [5]), 6.55; on HSA [3] (Measured KD from ΔG^037, binding to HSA; second value marked 2)) it was 4.99. The same molecule gave a negative-log Kd (pKd) on HSA [3] (setting [6]) of 6.68.
On to `C[CH2][Hg][S]c1ccccc1C(=O)[O-].[Na+]` [Thimerosal (TMS), Thimerosal], for which the pKd on HSA [2] is 3.47.
For `C[C@H](CS)C(=O)N1CCC[C@H]1C(=O)O` [Captopril (CAP), Captopril], the pKd at HSA [2] was 3.72; at HSA [3] (setting [4]) it was 5.43; on HSA [3] (setting [5]) it was 5.26; on HSA [3] (setting [6]) it was 5.69.
Regarding `CCCCCc1cc(O)c2c(c1)OC(C)(C)[C@@H]1CCC(C)=C[C@@H]21` [Δ9-tetrahydrocannabinol (THC), Δ9-tetrahydrocannabinol], the pKd on HSA [2] is at least 7.00; at HSA [3] (setting [7]), 7.46; at HSA [3] (setting [8]), 7.60; at HSA [3] (setting [9]), 7.32.
Regarding `O=C([O-])CN1CCN(CC(=O)[O-])CCN(CC(=O)O)CCN(CC(=O)[O-])CC1.[Gd+3]` [Dotarem (DOTA), gadoteric acid], the “reported HSA binding activity” value on HSA [2] is reported as “not have any measurable HSA binding activity”. Further, the “Measured HSA binding (cell spanning the measured KD columns; same in text)” value is listed as “No Binding Detected” at HSA [3] and “no binding was observed” at HSA [3] (listed as Dotarem).
For the molecule `O=C1OC2(c3ccc(O)cc3Oc3cc(O)ccc32)c2ccccc21` [Fluorescein (FSC), Fluorescein], the pKd on HSA [2] is 3.67; at HSA [3] (setting [4]), 4.17; at HSA [3] (setting [5]), 4.10; on HSA [3] (setting [6]), 4.25.
As for `COCCc1ccc(OCC(O)CNC(C)C)cc1` (stereo not drawn) [Metoprolol (MEP), Metoprolol], the pKd on HSA [2] is 4.13; at HSA [3] (setting [4]), 4.95; at HSA [3] (setting [5]), 5.52; on HSA [3] (setting [6]), 4.72.
Turning to `O=C([O-])CN(CCN(CC(=O)[O-])CC(COP(=O)(O)OC1CCC(c2ccccc2)(c2ccccc2)CC1)N(CC(=O)[O-])CC(=O)[O-])CC(=O)O.[Gd+3].[Na+]` (stereo not drawn) [Ablavar (AB)], the pKd on HSA [2] was 4.22.
